According to patent publication US12404261B2, “Compounds and compositions for treating conditions associated with cGAS” (Novartis AG, priority 2020, dated 2025):

target: human truncated cGAS enzyme (147-522 human cGAS) (Homo sapiens (Human), UniProt Q8N884); assay: Quantification of cGAS protein inhibition (cGAMP formation measured by LC-MS/MS); format: biochemical; conditions: reported for the potential mixture of co-existing tautomers and/or racemates
Method in brief: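 Human cGAS 147-522 (30 nM) in Tris pH 7.5, NaCl, MgCl2, ZnCl2, Tween 20, started with 5 μM ISD 45 bp dsDNA, 0.5 mM GTP and 0.5 mM ATP. Incubated 1 h at room temperature, then quenched with acetonitrile/TFA. cGAMP quantified by LC-MS/MS against a labelled cGAMP internal standard; IC50 from ratio versus compound concentration.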

human truncated cGAS enzyme (147-522 human cGAS), sequence (Q8N884 147-522): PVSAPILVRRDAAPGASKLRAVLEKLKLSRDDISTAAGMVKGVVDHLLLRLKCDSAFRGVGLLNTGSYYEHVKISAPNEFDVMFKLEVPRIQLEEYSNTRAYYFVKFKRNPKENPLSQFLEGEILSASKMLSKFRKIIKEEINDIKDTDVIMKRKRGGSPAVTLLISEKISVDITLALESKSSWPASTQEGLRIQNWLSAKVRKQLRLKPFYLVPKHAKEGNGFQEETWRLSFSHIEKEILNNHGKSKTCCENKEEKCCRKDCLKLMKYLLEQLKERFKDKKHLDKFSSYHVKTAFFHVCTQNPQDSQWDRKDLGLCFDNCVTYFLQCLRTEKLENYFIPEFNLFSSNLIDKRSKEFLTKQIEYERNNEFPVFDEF

IC50 [nM] | Compound
49 | COc1cc2c(-c3cn[nH]c3)c(-c3nnc(C(N)=O)[nH]3)[nH]c2cc1Cl [Example 31, 5-(6-chloro-5-methoxy-3-(1H-pyrazol-4-yl)-1H-indol-2-yl)-4H-1,2,4-triazole-3-carboxamide]
82 | COCCN(C)C(=O)c1nnc(-c2c(-n3ccnc3)c3cc(OC)c(Cl)c(F)c3n2C)[nH]1 [Example 40, 5-(6-chloro-7-fluoro-3-(1H-imidazol-1-yl)-5-methoxy-1-methyl-1H-indol-2-yl)-N-(2-methoxyethyl)-N-methyl-4H-1,2,4-triazole-3-carboxamide]
78 | COC[C@@H](O)c1nnc(-c2c(-n3ccnc3)c3cc(OC)c(Cl)c(F)c3n2C)[nH]1 [Example 83, (S)-1-(5-(6-chloro-7-fluoro-3-(1H-imidazol-1-yl)-5-methoxy-1-methyl-1H-indol-2-yl)-4H-1,2,4-triazol-3-yl)-2-methoxyethan-1-ol]
31 | COCC(F)(F)c1nnc(-c2[nH]c3c(F)c(Cl)c(OC)cc3c2-c2cn[nH]c2)[nH]1 [Example 65, 6-chloro-2-(5-(1,1-difluoro-2-methoxyethyl)-4H-1,2,4-triazol-3-yl)-7-fluoro-5-methoxy-3-(1H-pyrazol-4-yl)-1H-indole]
93 | Clc1ccc2c(-c3cn[nH]c3)c(-c3nnc(Br)[nH]3)[nH]c2c1Cl [Example 5, 2-(5-bromo-4H-1,2,4-triazol-3-yl)-6,7-dichloro-3-(1H-pyrazol-4-yl)-1H-indole]
